Key:
[1] = system: β3-adrenergic receptor mRNA; assay: β3-adrenergic receptor mRNA levels in PWAT and BAT; assay type: in vivo, rats; conditions: for β3AR mRNA levels, BAT / β3AR mRNA levels, PWAT: CGP-12177 0.75 mg/kg i.p., 4 h, mean ± SE
Description: (§1) Rats were fed a diet containing either, 8,643 IU retinol/kg diet (normal diet) or 430,431 IU retinol/kg diet (vitamin A supplemented diet) for a period of 8 weeks. Food and water were provided ad libitum. Body weights and food intake were recorded weekly. Basal whole body oxygen consumption was measured before starting the diet and then after week 3, 6 and 8 on the diet. At the end of 8 weeks, half the rats from each group were challenged with a single dose of the β3 adrenergic specific agonist, CGP-12177 (prepared in pyrogen-free saline, available from Ciba-Geigy, Summit, N.J.) (0.75 mg/kg, i.p.) or saline. The stimulated whole body oxygen consumption was measured and the animals sacrificed 4 hours after injection.
(§2) Total cellular RNA was extracted using a modification of the method described in Chomczynski and Sacchi, “Single step method of RNA isolation by acid guanidinium thiocyanate-phenolchloroform extraction”, Analytical Biochemistry 162:156-159 (1987). The integrity of the isolated RNA was verified using 1% agarose gels stained with ethidium bromide. The RNA was quantified by spectrophotometric absorption at 260 nm using multiple dilutions of each sample.
(§3) For dot-blot analysis, multiple concentrations of RNA were immobilized on nylon membranes using a dot-blot apparatus (Biorad, Richmond, Calif.). The membranes were baked at 80° C. for 2 hrs. The baked membranes were prehybridized using 25 mM potassium phosphate, 750 mM NaCl, 75 mM Na citrate, 5× Denhardt's solution, 50 μg/ml denatured salmon sperm DNA, and 50% formamide. After incubation for 14-16 hrs. at 42° C, the membranes were hybridized with ^32P labeled probes in the prehybridization buffer plus 10% dextran sulfate. After hybridization for 14-16 hr at 42° C., the membranes were washed and exposed to a phosphor imaging screen for 48 hrs. The latent image was scanned using a Phosphor Imager (Molecular Dynamic, Sunnyvale, Calif.) and analyzed by Image Quant Software (Molecular Dynamics). Intensities per μg total cellular RNA were calculated by comparison to internal laboratory standards of WAT or BAT total RNA present on each nylon membrane.

[2] = Whole body oxygen consumption (basal and CGP-12177-stimulated); assay type: in vivo; conditions: rats on normal and vitamin A supplemented diets, 0.75 mg/kg i.p., vs saline injected rats
Description: as §1
O2 consumption was assessed on up to four rats simultaneously with an Oxyscan analyzer (OXS-4; Amniotic Electronics, Columbus, Ohio). All experiments were performed on conscious unanesthetized rats during the light phase of the light-dark cycle. Flow rates were 2 L/min with a 30 second sampling time at 5 minute intervals. The temperature was maintained at 26° C. Results were expressed on a mass-dependent basis (ml/min/kg^0.67). The cumulative increase in the CGP12177-stimulated oxygen consumption was calculated as the average increase over baseline from 30 min to 110 min, post injection.

β-actin mRNA = β-actin mRNA levels in BAT; assay type: in vivo, rats; conditions: CGP-12177 0.75 mg/kg i.p., 4 h, mean ± SE
Description: (§4) Rats were fed a diet containing either, 8,643 IU retinol/kg diet (normal diet) or 430,431 IU retinol/kg diet (vitamin A supplemented diet) for a period of 8 weeks. Food and water were provided ad libitum. Body weights and food intake were recorded weekly. Basal whole body oxygen consumption was measured before starting the diet and then after week 3, 6 and 8 on the diet. At the end of 8 weeks, half the rats from each group were challenged with a single dose of the β3 adrenergic specific agonist, CGP-12177 (prepared in pyrogen-free saline, available from Ciba-Geigy, Summit, […].) or saline. The stimulated whole body oxygen consumption was measured and the animals sacrificed 4 hours after injection. Total cellular RNA was extracted using a modification of the method described in Chomczynski and Sacchi, “Single step method of RNA isolation by acid guanidinium thiocyanate-phenolchloroform extraction”, Analytical Biochemistry 162:156-159 (1987). […] The RNA was quantified by spectrophotometric absorption at 260 nm using multiple dilutions of each sample. […] The latent image was scanned using a Phosphor Imager (Molecular Dynamic, Sunnyvale, Calif.) and analyzed by Image Quant Software (Molecular Dynamics). Intensities per μg total cellular RNA were calculated by comparison to internal laboratory standards of WAT or BAT total RNA present on each nylon membrane.

leptin mRNA = assay: Leptin mRNA levels in PWAT (dot-blot); assay type: in vivo, rats; conditions: CGP-12177 0.75 mg/kg i.p.
Description: as §4

UCP1 mRNA = UCP1 mRNA levels in BAT (dot-blot); assay type: in vivo; conditions: rats on both vitamin A supplemented and normal diets, 0.75 mg/kg i.p., 4 h (FIG. 4)
Description: as §4

UCP2 mRNA = UCP2 mRNA levels in PWAT and BAT; assay type: in vivo, rats; conditions: CGP-12177 0.75 mg/kg i.p., 4 h, mean ± SE
Description: as §1, §2, §3

## CC(C)(C)NCC(O)COc1cccc2[nH]c(=O)[nH]c12 (stereo not shown) [CGP-12177]
[1]; CGP-12177 for 4 h, rats on vitamin A supplemented and normal diets, vs saline treated
  Down regulation of β3-adrenergic receptor mRNA levels in BAT: 50%
[1]; Normal Diet
  β3AR mRNA levels, BAT: 50.9 ± 3.3 arbitrary units
  β3AR mRNA levels, PWAT: 105 ± 6.0 arbitrary units
[1]; Vitamin A supplemented diet
  β3AR mRNA levels, BAT: 59.8 ± 7.9 arbitrary units
  β3AR mRNA levels, PWAT: 112 ± 11 arbitrary units
[2]
  Oxygen consumption upon administration of CGP-12177: rapid and sustained increase
β-actin mRNA; Normal Diet
  β-actin mRNA levels, BAT: 98.6 ± 7.4 arbitrary units
β-actin mRNA; Vitamin A supplemented diet
  β-actin mRNA levels, BAT: 93.8 ± 8.0 arbitrary units
Leptin mRNA; rats on normal diet, 4 hr (FIG. 2)
  Suppression of leptin mRNA levels in PWAT: 27%
Leptin mRNA; rats on vitamin A supplemented diet, 4 hr, vs saline on same diet
  Effect on leptin mRNA levels in PWAT: no further effect
UCP1 mRNA
  UCP1 mRNA levels in BAT upon administration of CGP-12177: significant but similar increase
UCP2 mRNA; Normal Diet
  UCP2 mRNA levels, BAT: 93.4 ± 12.2 arbitrary units
UCP2 mRNA; Normal Diet, 0.75 mg/kg
  UCP2 mRNA levels, PWAT: 109 ± 10 arbitrary units
UCP2 mRNA; Normal Diet, listed as CGP12177, 0.75 mg/kg
  UCP2 mRNA levels, PWAT: no effect
UCP2 mRNA; Vitamin A supplemented diet
  UCP2 mRNA levels, BAT: 94 ± 8.9 arbitrary units
  UCP2 mRNA levels, PWAT: 110 ± 10 arbitrary units

Reference: US6616940B2, “Process for decreasing adiposity using Vitamin A as a dietary supplement” (The Procter & Gamble Company, priority 1998, dated 2003)
